Literature values as cited in patent publication US20190350197A1, “Composition comprising polyurethane microcapsules comprising cinmethylin” (BASF Agro B.V., priority 2016, published 2019).

Conditions: at 20° C.

## (±)-2-exo-(2-methylbenzyloxy)-1-methyl-4-isopropyl-7-oxabicyclo[2.2.1]heptane [Cinmethylin]
  solubility in water: 0.063 g-L^−1
